How the values were obtained:
[1] = tested on: TPA induced chronic skin inflammation; assay: Example E: TPA induced chronic skin inflammation mouse model, ear thickness; format: in vivo
Source text: Objective: To evaluate the anti-inflammatory properties of compounds of the invention in a 12-O-tetradecanoylphorbol-13-acetate (TPA) induced chronic skin inflammation mouse model.
Topically applied phorbol esters such as TPA induce skin inflammation involving edema, macrophage and T cell infiltration and epidermal hyperplasia (Alford et al., 1992), and this system has been used as an animal model for dermatitis, mimicking aspects of human inflammatory skin disorders. TPA is also known as a tumor promoter, so that agents which inhibit hyperproliferative or angiogenic actions of TPA may inhibit tumor promotion.
Drug formulations: Compound AC was dissolved in isopropyl myristate:propylene glycol (1:1)+0.9% DMSO at the indicated concentrations. TPA was dissolved in acetone:water (99:1). Dexamethasone (0.06%) was dissolved in normal saline.
Mice: HSD-ICR(CD-1R) female mice at 8-10 weeks of age were used in this experiment.
Experimental Design: Mice were placed into six groups of 10 mice each. 20 μL of 0.01% TPA was administered to each ear on days 0, 2, 4, 7, 9, 11, 13, 15, 18, 20, and 22. 20 μL of AC at various concentrations or 20 μL of dexamethasone solution was applied to the ears daily beginning on day 7, after inflammatory changes in ear thickness were established. Ear thickness was measured with calipers every three days.

[2] = tested on: PC-3 cells; assay: Example P: PC-3 human hormone-independent prostate cancer xenografts in nude mice; format: in vivo
Method: Standard models for prostate cancer use subcutaneous xenografts of human prostate cancer cell line. Local measurable tumors are produced at the site of injection of the cells, and they metastasize to critical tissues such as the bones, lungs and liver. Mortality in this model is due to metastases impairing tissue function. Compounds of the invention were assessed for inhibition of tumor growth and reduction or delay of mortality in the PC-3 prostate cancer model, which mimics an advanced, androgen-independent stage of prostate cancer.
10 female nude mice (female Hsd:athymic nude-Foxn1^nu) received PC-3 cells (5×10^6 per mouse in 0.1 mL PBS) by subcutaneous injection into the right hind flank. […] Mice received AC or vehicle (saline) via intraperitoneal (i.p.) injection once daily until day 79. • 1. […] Compound AC: 120 μmol/kg/day.
Tumors were measured with calipers twice per week, and body weights and mortality were also monitored.

[3] = tested on: Vit-D3 activated THP-1 cells; assay: Example B: viable cell count, AC vs chloroquine, +/- LPS; format: cell-based, Human; conditions: LPS-stimulated and basal THP-1 cells, 5 hours
Method: • 1. Vit-D3 activated THP-1 cells (0.5×10^6 cells in 2 ml) were transferred to the wells of a 24-well dish • 2. Compound AC was added at a concentration of 0.5 μM, 1.0 μM or 5.0 μM • 3. […] LPS from E. coli 0111:B4 (1 ng/ml final concentration) was added to some wells • 5. After 5 hours viable cell count, Acridine Orange (A.O.) uptake and JC-1 mitochondrial loading were determined by fluorescence-activated cell sorting (FACS)
THP-1 cells (p39) treated with 0.1 μM vit-D3 (100 μM) in DMSO] for 3 days were counted, spun down, resuspended in serum-free RPMI (Lonza 12-115F) and transferred to the wells of two 24-well dishes (0.5×10^6 cells in 2 ml). […] Crude-LPS from E. coli 0111:B4 was added to some wells (1 ng/ml final conc) and the plates placed in a 37 C incubator. 1 μl of Baf A1 (50 nM final conc) was added to one well (no LPS) at T=4 hours to serve as a compensation control for Acridine Orange loading. After 5 hours, 500 μl aliquots of cells were transferred to FACS tubes and viable cell counts, A.O. loading and JC-1 accumulation determined by FACS.
The tubes were washed twice in DPBS, resuspended in 500 μl DPBS and acquired on the FACSCalibur.

[4] = AC 120 μmol/kg/day i.p. once daily, group of 5

In the case of CCCCCCOc1cccc(CNc2ccnc3ccccc23)c1 [Compound AC, N-[3-(Hexyloxy)benzyl]quinolin-4-amine], the “Ear thickness (mm)” value ([1]; day 22, 0.0125 mg/ear daily topical from day 7, TPA-treated mice) is reported as 0.362 ± 0.0394 mm, the “Ear thickness (mm)” value ([1]; day 22, 0.025 mg/ear daily topical from day 7, TPA-treated mice) is reported as 0.390 ± 0.0319 mm and the “Ear thickness (mm)” value ([1]; day 22, 0.05 mg/ear daily topical from day 7, TPA-treated mice) is reported as 0.391 ± 0.0334 mm. For the same molecule, the “Ear thickness (mm)” value ([1]; day 22, 0.075 mg/ear daily topical from day 7, TPA-treated mice) was 0.395 ± 0.0438 mm, the “Histology of TPA-treated ears, in words” value ([1]; topical AC) was “both TPA-induced edema and epidermal hyperplasia were reduced by AC, as was angiogenesis” and the “mean body weight at end of study” value ([2]; AC 120 μmol/kg/day i.p.) was 28.9 ± 1.3 g. For the same molecule, the “mice regressed more than 50% from the initial tumor size” value ([2]; AC 120 μmol/kg/day i.p.) was “one”, the “mice with no detectable tumors at end of study (complete regressions)” value ([2]; AC 120 μmol/kg/day i.p.) was “two” and the “day of death of the one mouse that died” value [2, 4] was 65 days. The “number of mice surviving until the study was terminated on day 79” value [2, 4] was 4, the “tumor size, average % of initial size” value ([2]; day 77, AC 120 μmol/kg/day i.p.) was 949% and the “initial group body weight” value ([2]; pretreatment) was 26.8 ± 0.5 g. For the same molecule, the “potency of AC relative to chloroquine for inactivating macrophages (THP-1 cells)” value [3] was “approximately 100 fold”.
